This is an account of results in patent publication US20060019565A1, “Method for delivering biologically active substnces” (priority 2002, published 2006).

Molecules are shown by their SMILES.

Data set [1] in a line: Antimicrobial protection of treated cotton fibre. The protocol: (§1) II.5 A padding bath is prepared containing 20 g/l of compound (101) and is applied at 20-25° C. with a pick-up rate of 70-80% on cotton. After drying (65 to 15 s at 70-130° C.), the resulting fabric contains the latent menthol.
II.6 The same treatment is made on cotton using compound (102) in place of (101).
II.7 A cotton fabric is similarly treated with an aqueous formulation of compounds of formula (101) and (102).

Data set [2] is described as follows: Release of the hydroxyl compound by hydrolysis from a treated substrate (PAN fabric, cotton, paper). The following applies: for release of the active hydroxyl compound upon hydrolysis: concentrated aqueous formulation sprayed on cellulosic substrate (paper, cotton), air-dried. It is filed as physicochemical. The procedure: After the treatment with the aqueous solution of the ester compound a slow release of the biologically active hydroxyl compound on the substrate starts through hydrolysis. The velocity of this process can easily be controlled through pH and/or temperature variations.
II.1 A sample of 15 g polyacrylonitrile (PAN) fabric (Dralon 5-4301), pretreated with a commercial wetting agent (TINOVETIN® JU, supplied by Ciba Specialty Chemicals) at 60° C. during 10 min and rinsed with cold water, is fixed on a support material and in an exhaust dyeing machine of type Ahiba treated with the following composition: • 7.5 ml aqueous Na2SO4 solution (100 g/l) • 2.25 ml aqueous sodium acetate solution (100 g/A) • 2.25 ml 80% acetic acid • 233.5 ml water • 3.0 ml cationic retarder (TINEGAL® MR, Ciba Specialty Chemicals) (100 g/l) • 1.5 ml aqueous solution of compound of formula (101) (100 g/l)
The temperature is kept at 98° C. for 20 min; the pH of the bath after cooling to room temperature is 4.7. The sample of PAN fabric is rinsed with cold water and subsequently dried in the air. The resulting PAN fabric contains the latent menthol.
as §1
II.8 A concentrated aqueous formulation of compound (101) is sprayed on a cellulosic substrate (e.g. paper, cotton).

[3] abbreviates: cotton treated with aqueous formulation of (101) and (102) together.
Setting [4] is: cotton, padding bath 20 g/l, 20-25° C., pick-up 70-80%.

With `CN(C)CC[N+](C)(C)CC(=O)Oc1cc(Cl)ccc1Oc1ccc(Cl)cc1Cl.[Cl-]` [compound 102], the antimicrobial protection entry in data set [1] (cotton padded with compound (102) alone) and in data set [1] (setting [3]) was “good antimicrobial protection over time” in each case. Also, in data set [2], the “release of the active hydroxyl compound upon hydrolysis” value is listed as “releases triclosan upon hydrolysis”. Further, the “release of the active hydroxyl compound from treated fabric” value in data set [2] (setting [3]) and in data set [2] (setting [4]) was “slowly released” in each case.
As for `CC1CCC(C(C)C)C(OC(=O)C[N+](C)(C)CCN(C)C)C1.[Cl-]` (stereo not drawn) [compound 101], in data set [2] (PAN fabric, exhaust treatment 98° C. for 20 min, bath pH 4.7-5.2, velocity of release controlled by pH), the “regeneration of menthol from treated fabric” value was “gradually regenerated”. The “release of the active hydroxyl compound upon hydrolysis” value in data set [2] is recorded as “releases menthol upon hydrolysis”. For the same compound, the “release of the active hydroxyl compound from treated fabric” value in data set [2] (setting [3]) is “slowly released”; in data set [2] (setting [4]) it was “gradually regenerated”.
